Assay results: US20240074997A1 (priority 2022, published 2024)
≈ marks a conversion by molar mass, not a printed value.

Key:
[1] = biological target: T1, glucocorticoid receptor recombinant human protein, ligand binding domain (Homo sapiens, UniProt P04150); test: glucocorticoid receptor LBD coregulator-derived peptide array; format: biochemical; details: Example 2, 0.1 mM vs solvent 2% DMSO, FIG. 6
T1 construct: purchased Thermo Fisher Scientific A15668
T1 sequence (P04150 524-758 limits assumed): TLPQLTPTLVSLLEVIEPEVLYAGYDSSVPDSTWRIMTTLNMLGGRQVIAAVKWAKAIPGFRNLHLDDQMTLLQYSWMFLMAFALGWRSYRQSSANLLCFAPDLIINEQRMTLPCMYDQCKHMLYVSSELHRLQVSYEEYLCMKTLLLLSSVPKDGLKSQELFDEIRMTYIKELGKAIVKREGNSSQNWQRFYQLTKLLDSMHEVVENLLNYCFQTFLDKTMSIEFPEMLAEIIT
Procedure: EXAMPLE 1: Interactions between the glucocorticoid receptor ligand binding domain (LBD) and coregulator-derived peptides were determined using the method as described by Zalachoras et al 2009^xl. Each peptide array consisting of 11 coregulator peptides as described in Table 1 were incubated with a reaction mixture of 1 nM purified glucocorticoid receptor recombinant human protein, ligand binding domain, (Thermo Fisher Scientific, cat #A15668), ALEXA488-conjugated anti-Glutathione S-Transferase (GST) antibody and buffer F (PV4689, A-11131, and PV4547; Invitrogen). […] Incubation was performed at 20° C. on the peptide array, using one two arrays per condition. glucocorticoid receptor binding to each peptide on the array, reflected by fluorescent signal, was quantified by image analysis using R-based software (Precision Medicine Lab). […] Glucocorticoid receptor binding to each peptide on the array, reflected by fluorescent signal, was quantified by image analysis using R-based software (Precision Medicine Lab). […]
The use of glucocorticoid receptor LBD was as described in Experiment 1. […] Glucocorticoid receptor binding to each peptide on the array, reflected by fluorescent signal, was quantified by image analysis using R-based software (Precision Medicine Lab).

zebrafish larvae = test: Zebrafish inflammation model (tail fin clip, neutrophil migration); format: in vivo; details: 4 hours, clipped 3 day old larvae, p<0.001 vs. Vehicle
Text: The details of this model have been described previously (Xie, Y., Meijer, […]. Modeling Inflammation in Zebrafish for the Development of Anti-inflammatory Drugs. Front. Cell Dev. Biol. 8, 620984 (2021)). In short, a zebrafish model with fluorescently labeled neutrophils is used. The tip of the tail fin of 3 day old zebrafish larvae are clipped. As a result, a local inflammatory response is initiated and evokes to leukocyte migration towards the wound. The number of attracted neutrophils is recorded and serves as parameters for inflammation. […] (Significance ***: p<0.001, as determined by Student's t-Test vs. Vehicle)

RARγ = biological target: T2, RARγ (Homo sapiens, UniProt P13631); details: cited from earlier work
T2 sequence (P13631 1-454): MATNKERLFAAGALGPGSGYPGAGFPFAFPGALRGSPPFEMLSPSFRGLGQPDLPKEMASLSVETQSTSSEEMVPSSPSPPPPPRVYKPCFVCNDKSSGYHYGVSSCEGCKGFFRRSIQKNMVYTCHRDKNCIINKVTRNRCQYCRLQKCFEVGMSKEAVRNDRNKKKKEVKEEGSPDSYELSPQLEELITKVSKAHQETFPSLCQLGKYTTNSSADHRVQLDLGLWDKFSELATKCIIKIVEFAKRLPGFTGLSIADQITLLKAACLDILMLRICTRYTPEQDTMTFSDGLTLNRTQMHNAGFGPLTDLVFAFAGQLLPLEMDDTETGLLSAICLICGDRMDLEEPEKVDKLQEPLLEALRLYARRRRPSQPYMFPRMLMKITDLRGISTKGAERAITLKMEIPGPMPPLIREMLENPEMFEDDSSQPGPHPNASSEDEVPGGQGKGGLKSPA

RM-1 cells = details: cited from earlier work
[2] = cited from earlier work
RARβ = biological target: T3, RARβ (Homo sapiens, UniProt P10826); details: cited from earlier work
T3 sequence (P10826 1-455): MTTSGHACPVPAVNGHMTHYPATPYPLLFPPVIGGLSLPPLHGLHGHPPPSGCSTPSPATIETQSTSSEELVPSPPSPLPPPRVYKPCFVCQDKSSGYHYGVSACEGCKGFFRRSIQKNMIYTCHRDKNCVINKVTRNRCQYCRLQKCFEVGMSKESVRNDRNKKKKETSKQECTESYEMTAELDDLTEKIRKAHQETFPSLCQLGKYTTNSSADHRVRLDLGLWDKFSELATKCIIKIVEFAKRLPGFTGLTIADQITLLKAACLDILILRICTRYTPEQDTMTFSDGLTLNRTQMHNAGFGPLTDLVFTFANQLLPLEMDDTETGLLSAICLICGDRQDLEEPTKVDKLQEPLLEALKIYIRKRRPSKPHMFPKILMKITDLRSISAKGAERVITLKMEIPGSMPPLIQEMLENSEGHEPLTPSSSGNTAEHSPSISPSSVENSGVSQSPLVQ

[3] = cited from earlier work; remark: listed apart in the source
[4] = cited from earlier work; remark: listed apart in the source
[5] = cited from earlier work; remark: listed apart in the source
glucocorticoid receptor = biological target: T4, glucocorticoid receptor (Homo sapiens, UniProt P04150); details: cited from earlier work
T4 sequence (P04150 1-777): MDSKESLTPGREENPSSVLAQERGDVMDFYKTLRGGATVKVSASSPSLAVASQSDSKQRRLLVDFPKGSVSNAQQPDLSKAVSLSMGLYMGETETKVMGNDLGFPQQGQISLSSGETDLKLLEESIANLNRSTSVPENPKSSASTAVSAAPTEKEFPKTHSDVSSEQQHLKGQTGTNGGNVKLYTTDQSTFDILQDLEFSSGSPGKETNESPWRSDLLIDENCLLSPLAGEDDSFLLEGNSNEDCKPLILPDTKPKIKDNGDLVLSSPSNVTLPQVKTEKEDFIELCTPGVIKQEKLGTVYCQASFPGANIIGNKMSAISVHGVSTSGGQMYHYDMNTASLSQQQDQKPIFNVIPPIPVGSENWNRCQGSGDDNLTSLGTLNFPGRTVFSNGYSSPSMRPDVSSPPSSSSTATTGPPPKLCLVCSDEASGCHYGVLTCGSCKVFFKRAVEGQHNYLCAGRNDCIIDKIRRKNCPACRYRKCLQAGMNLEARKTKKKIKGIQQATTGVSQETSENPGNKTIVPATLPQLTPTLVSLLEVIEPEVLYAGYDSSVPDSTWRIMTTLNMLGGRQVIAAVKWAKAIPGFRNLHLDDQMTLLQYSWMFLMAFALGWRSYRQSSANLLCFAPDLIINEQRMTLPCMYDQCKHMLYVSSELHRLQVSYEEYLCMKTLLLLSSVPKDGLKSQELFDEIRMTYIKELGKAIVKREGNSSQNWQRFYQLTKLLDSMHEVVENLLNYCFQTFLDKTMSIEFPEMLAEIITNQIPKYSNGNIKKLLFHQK

In the case of `CC1=C(/C=C/C(C)=C/C=C/C(C)=C/C(=O)O)C(C)(C)CCC1` [ATRA, all-trans retinoic acid], the “glucocorticoid receptor-modulating effect (binding profile)” value [1] is reported as “does not display any glucocorticoid receptor-modulating effect”.
In the case of `COc1ccc(-c2ccc3cc(C(=O)O)ccc3c2)cc1C12CC3CC(CC(C3)C1)C2` [Adapalene, 6-[3-(1-adamantyl)-4-methoxyphenyl]naphthalene-2-carboxylic acid], the “anti-inflammatory action (number of attracted neutrophils)” value (zebrafish larvae; 1 μM) is listed as “significant anti-inflammatory action”, the “affinity for RARγ” value (RARγ) is listed as “high affinity” and the “migration ability of RM-1 cells (wound-healing assay)” value (RM-1 cells; dose-dependent) is listed as “significantly suppressed”. The “invasiveness of RM-1 cells” value (RM-1 cells; high doses) was “decrease the invasiveness”, the “degradation in acidic condition” value ([2]; 0.3 M HCl solution, 10 min of boiling) was 28% and the “stability in alkaline condition” value ([2]; 2 M NaOH solution, boiled for 2 h) was “stable”. For the same compound, the “degradation in oxidative conditions” value ([2]; 80° C. for 10 min with 30% hydrogen peroxide solution) was 30%, the “degradation on exposure to UV light” value ([2]; 254 and 366 nm, 12 h) was 25% and the “affinity for RARβ” value (RARβ) was “high affinity”. The pKa [3] was 4.23, the “pKa (strongest acidic)” value [3] was 3.99 and the “pKa (strongest basic)” value [3] was −4.8. For the same compound, the “solubility in dimethyl sulfoxide” value ([4]; 25° C.) was greater than 10000 µg/mL, the solubility in dimethylformamide ([4]; 25° C.) was 5000 µg/mL (≈ 12.1 mM) and the solubility in ethanol ([4]; 25° C.) was less than 1000 µg/mL. For the same compound, the solubility in tetrahydrofuran ([4]; 25° C.) was 5000 µg/mL (≈ 12.1 mM) and the solubility in water [4] was “poor solubility”.
In the case of `C[C@@H]1C[C@H]2[C@@H]3C[C@H](F)C4=CC(=O)C=C[C@]4(C)[C@@]3(F)[C@@H](O)C[C@]2(C)[C@@]1(OC(=O)C1C(C)(C)C1(C)C)C(=O)OCC#N` [GW870086], the “clinical efficacy in atopic dermatitis” value ([5]; atopic dermatitis patients) is given as “did not achieve significant clinical efficacy” and the skin atrophy ([5]; healthy adults) is given as “does not include skin atrophy”.
In the case of `C[C@H](NC(=O)[C@H]1CCCO1)[C@H](Oc1ccc(C(=O)O[C@H]2CCCN(C(=O)[C@H]3COC(=O)C3)C2)cc1)c1ccc(C2CC2)cc1` [LEO 134310], the potency on transactivation (glucocorticoid receptor) is given as “lower potency” and the potency on transrepression (glucocorticoid receptor) is given as “high potency”.
For `C[C@H]1C[C@H]2[C@@H]3CCC4=CC(=O)C=C[C@]4(C)[C@@]3(Cl)[C@@H](O)C[C@]2(C)[C@@]1(O)C(=O)CO` [beclomethasone], the “anti-inflammatory action (number of attracted neutrophils)” value (zebrafish larvae; 25 μM) was “significant anti-inflammatory action”.
